Several values for one entry are separate records, joined by “and”; a condition that tells them apart may be missing. Identical values can stand only once. Entries after “also recorded” stand apart in the source; their conditions may differ.
Legend:
[1] = system: motor neurons in embryonic rat spinal cord cultures; test: Excitotoxicity assay (100 μM kainic acid) in mixed spinal cord cultures; assay type: cell-based; details: for excitotoxic motor neuron death: drug for 4 days (added 4 and 2 days) prior to 100 μM kainic acid 1 h, SMI-32(+) motor neurons counted 24 h later; for % of motor neurons killed (cell death) after excitotoxic insult: 4 day pre-treatment prior to 100 μM kainic acid
Procedure: Unless otherwise specified, BDNF was added to all cultures.
Many previous in vitro investigations have identified motor neurons in mixed spinal cord cell culture by immunostaining for non-phosphorylated neurofilaments (or peripherin) and restricting analysis to cells with a soma diameter of 25 μm or greater (Carriedo et al., 2000; Hu and Kalb, 2003). We wanted to confirm the validity of this approach using an independent method for determining whether a given cell is a motor neuron. To specifically identify motor neurons in our cultures we purified these cells by metrizamide gradient and immunopanning techniques (Henderson et al., 1993; Fryer et al., 1999), live-labeled them with CM-DiI, and added these fluorescently-tagged, bona fide motor neurons to mixed cell cultures at the time of initial plating. All CM-DiI labeled cells stained for motor neurons markers such as non-phosphorylated neurofilament H (using antibody, SMI-32), peripherin, choline acetyl transferase (ChAT) and islet ½ (FIG. 1, panel a.). We then subjected spinal cord cultures to an excitotoxic insult and determined motor neuron survival using multiple methods for identifying motor neurons. […] Since all SMI-32 (+) cells with cell body diameter of 25 μm or greater were CM-DiI (+) and all CM-DiI (+) cells were SMI-32 (+), for the remainder of the studies herein, we could confidently study motor neuron death in vitro by counting SMI-32 (+) cells with a cell body diameter of 25 μm or greater.

[2] = system: motor neurons expressing G59S p150^glued; test: Motor neuron death from HSV-expressed mutant p150glued in spinal cord cultures; assay type: cell-based, rat; details: 6 days post-infection; treatment daily or every other day
Text: (§1) Various cDNAs were cloned into the PrpUC amplicon plasmid and were used to generate recombinant HSV as previously described (Neve et al., 1997). The titer of viruses used in these studies were routinely 3-5×10^7 plaque-forming units/ml. The cDNA for wild type/mutant SOD and wild type/mutant p150^glued were gifts of D. Borchelt and E. Holzbaur, respectively. The K295R mutant version of chick src was a gift of J. Brugge.
(§2) Mutations in superoxide dismutase (SOD) or the p150^glued subunit of dynactin are known to account for a familial form of ALS in a subpopulation of individuals (Rosen, 1993; Puls et al., 2003; Bruijn et al., 2004). We inquired whether expression the mutant forms of SOD or p150^glued caused motor neuron death in vitro and if Trk antagonism was neuroprotective. Recombinant herpes simplex viruses (HSVs) were generated that expressed wild type or mutant form of SOD (G85R) and wild type or mutant p150^glued (G59S). […] Spinal cord cultures were infected with virus at 14 DIV and the number of motor neurons was determined 2, 4, 6 or 8 days later (FIG. 4, panel a.).
(§3) We next determined if KW6002 could protect motor neurons from the toxic effects of mutant proteins. Spinal cord cultures were infected with viruses expressing wild type or mutant versions of SOD or p150^glued at 14 DIV, then treated with drug or vehicle for 4 days (FIG. 4, panel b.). […]

[3] = system: motor neurons expressing G85R SOD; test: Motor neuron death from HSV-expressed mutant SOD in spinal cord cultures; assay type: cell-based, rat; details: 6 days post-infection; treatment daily or every other day
Text: as §1, §2, §3

[4] = system: motor neurons in embryonic rat spinal cord cultures; details: Mojsilovic-Petrovic et al., 2005; cited from earlier work
[5] = system: src-family kinases (SFK); test: Immunoblot for active SFKs (clone 28 antibody) in spinal cord cultures; assay type: cell-based, rat; details: 24 hours treatment; listed as MRS 1754
Procedure: (§4) Cells were lysed in 1% NP-40 lysis buffers containing protease inhibitors, subjected to SDS-PAGE and immunoblotted as previously described (Fryer et al., 1999; Fryer et al., 2000). For immunoprecipitation, lysates from 60 mm dishes were pre-cleared by incubation with protein A beads (Santa Cruz), incubated with primary antibody (4 μg/ml)×2 hours then 50 μL of beads added and incubated overnight with gentle agitation at 4° C. Beads were pelleted, washed 5× with 10 mM Tris pH 7.4+0.5 mM EGTA+0.5 mM EDTA+0.1% NP40 before elution in 1× Laemelli sample buffer. Antibody sources: BD Transduction Labs—TrkB and MAP Kinase used at 1:500, Cell Signaling—Akt 1:1000; phosphoTrk (tyr490) 1:1000; phospho p42/44 MAP Kinase (thr 202/tyr204) 1:1000; phosphoAkt (ser473) 1:500; IGFI antibody (tyr 1131) 1:500. Upstate—adenosine A2a 1:1000. Sigma—actin 1:200. Biosource—active src (clone 28) 1:200.
The precise mechanism by which G-protein coupled receptors trans-activate receptor tyrosine kinases is complex and to some extent receptor-subtype specific (Luttrell et al., 1999; Downward, 2003; Piiper and Zeuzem, 2004; Waters et al., 2004). […] If this pathway was operative in spinal cord neurons, then antagonism of adenosine A2a receptors might lead to reduced src activation and antagonism of SFKs might be neuro-protective. Src is negatively regulated by phosphorylation of tyrosine 529 (refers to human src sequence) and an antibody that recognizes a de-phospho epitope in this region (“clone 28”) is a reliable measure of active src and SFKs (Kawakatsu et al., 1996). We began by asking for adenosine A2a receptors and active SFKs are present in the same cells and if so, their subcellular distribution. Pure motor neurons, grown in the presence of BDNF were immunostained with a rabbit anti-adenosine A2a receptor and the clone 28 antibody. One hundred percent of motor neurons expressed both antigens and on dendrites, the immunoreactivity formed discrete fine puncta (FIG. 5a). Many, but not all, puncta were stained with both antibodies. […]

[6] = system: Trk; test: Immunoblot for phosphoTrk in spinal cord cultures; assay type: cell-based, rat; details: 24 hours treatment
Procedure: as §4
(§5) We next asked about the effect of the adenosine A2 receptor antagonism on Trk signaling. Cultures of spinal cord cells (grown in the presence of a cocktail of trophic factors including 10 ng/ml BDNF) received KW6002 (1 μM), MRS1754 (50 nM) or vehicle (DMSO 0.1%) and 24 hrs. later, lysates were prepared for immunoblots for Trk and the MAP kinase downstream signaling module (FIG. 2, panel a). Immunoblots for phosphoTrk and phosphoMAPK were employed to monitor the state of activation of these proteins.
(§6) We followed up these observations by determining the effect of enprofylline on Trk signaling and determined the extent to which the resultant biochemical changes mimic the effects of direct pharmacological Trk antagonism with CEP4416. […] The effect of drug treatment on AKT was particularly marked. […] To determine the specificity of these agents, we examined their effect on Insulin-like growth factor 1 (IGF1) signaling through the IGF receptor tyrosine kinase (IGFR). […] It is unlikely that phosphodiesterase activity of enprofylline can explain these observations as increased cAMP levels enhance, not suppress, TrkB activation (Boulanger and Poo, 1999; Ji et al., 2005).

[7] = system: MAP kinase; test: Immunoblot for phosphoMAPK in spinal cord cultures; assay type: cell-based, rat; details: 24 hours treatment
Procedure: as §4, §5, §6

[8] = system: IGF receptor tyrosine kinase (IGFR); test: Immunoblot for phospho-IGFR in spinal cord cultures; assay type: cell-based, rat; details: 5 nM, 30 min
Procedure: as §4, §6

C[C@]12O[C@H](C[C@]1(O)CO)n1c3ccccc3c3c4c(c5c6ccccc6n2c5c31)CNC4=O [CEP701]
excitotoxic motor neuron death [1]: No motor neuron death occurred
excitotoxic motor neuron death ([1]; listed as CEP-701): completely blocked the loss of SMI(+) neurons

N#Cc1cc2[nH]c(=O)c(=O)[nH]c2cc1[N+](=O)[O-] [CNQX]
motor neuron survival / toxicity of G59S p150glued [2]: significantly greater number of motor neurons; also recorded: completely prevented the toxicity of mutant protein expression
motor neuron survival / toxicity of G85R SOD [3]: significantly greater number of motor neurons; also recorded: completely prevented the toxicity of mutant protein expression

CCCn1c(=O)c2[nH]c(C3CCCC3)nc2n(CCC)c1=O [DPCPX]
excitotoxic cell death in pre-treated cultures (previous observations) [4]: death occurred

O=S(=O)(NCCNC/C=C/c1ccc(Br)cc1)c1cccc2cnccc12 [H89]
% of motor neurons killed (cell death) after excitotoxic insult [1]: 40% and 53±5%

CCCn1c(=O)c2[nH]c(-c3ccc(OCC(=O)Nc4ccc(C#N)cc4)cc3)nc2n(CCC)c1=O [MRS1754]
abundance of active SFKs [5]: only reduced in cultures treated with KW6002
abundance of phosphoTrk [6]: indistinguishable from the vehicle control
% of motor neurons killed (cell death) after excitotoxic insult [1]: 50%
% of motor neurons killed (cell death) after excitotoxic insult ([1]; listed as MRS 1754): ~40%
abundance of phosphoMAPK [7]: indistinguishable from the vehicle control

Cc1ccc(-c2nn(C(C)(C)C)c3ncnc(N)c23)cc1 [PP1]
abundance of phosphoTrk [6]: reduction in the abundance of phosphorylated Trk; also recorded: reduction in the abundance of phosphoTrk
% motor neuron survival after excitotoxic challenge ([1]; SFK inhibition before excitotoxicity assay): 100±2%
number of motor neurons surviving excitotoxic challenge ([1]; SFK inhibition, versus LacZ or vehicle): statistically significant greater number of motor neurons

Nc1ncnc2c1ncn2C1CCCO1 (stereo not drawn) [SQ 22536]
% of motor neurons killed (cell death) after excitotoxic insult [1]: 40% and 42±4%
basal survival of motor neurons ([1]; 4 day pre-treatment, without excitotoxic challenge): did not adversely affect the basal survival of motor neurons

Nc1nc(NCCc2ccc(O)cc2)nc2nc(-c3ccco3)nn12 [ZM241385]
excitotoxic cell death in pre-treated cultures (previous observations) [4]: no excitotoxic cell death

CCCC(=O)Nc1ncnc2c1ncn2[C@@H]1O[C@@H]2COP(=O)(O)O[C@H]2[C@H]1OC(=O)CCC [db-cAMP, dibutryl-cAMP]
% of motor neurons killed (cell death) after excitotoxic insult [1]: −2±3%
excitotoxic motor neuron death [1]: No excitotoxic cell death occured

C=C(C)[C@H]1CN[C@H](C(=O)O)[C@H]1CC(=O)O [kainic acid]
loss of motor neurons ([1]; 100 μM for 1 hour, counted 24 hours later, 14-16 DIV): ~45%

IGF1: Insulin-like growth factor 1
IGFR phosphorylation upon acute administration [8]: robust induction of phospho-IGFR; also recorded: strong increase in IGFR phosphorylation
